Source: patent US20080069809A1, “Compositions and methods for the diagnosis and treatment of cancer” (priority 2006, published 2008)

How the values were obtained:
[1] = tested on: protein kinase C (PKC); conditions: Kedei et al 2004; cited from earlier work
[2] = target: T1, PKC-δ (Homo sapiens, UniProt Q05655); assay: PKC-δ cleavage to 40-kDa fragment in HL60 cells (Western blotting); format: cell-based; conditions: 20 nM PEP005 for up to 9 hours
T1 construct: endogenous in cells; host or cells: HL60
Procedure: PKC isoenzyme expression in leukemic cell lines was determined by Western blotting. Cells (0.5×10^6) were lysed in lysis buffer (20 mM Tris [tris(hydroxymethyl-aminomethane]-HCl, pH 7.4, containing 150 mM NaCl, 0.5 mM EDTA [ethylenediaminetertraacetic acid], 1 mM dithiothreitol, 1 mM phenymethlsulfonylfuoride, 10 μg/mL of aprotinin, leupeptin, and pepstatin A, and 1% Triton-X-100). the lysate was spun at 1000 g for 10 minutes to isolate nuclei and was then combined 1:1 with sodium dodecyl sulfate (SDS) sample buffer and boiled for 5 minutes. The extracts were then analyzed by Western blotting using antibodies to the major isoenzymes found in myeloid cells, namely PKC-α, PKC-β, PKC-δ and PKC-ξ (all purchased from Santa Cruz Biotechnology, Santa Cruz, Calif.). Blots were developed using an enhanced chemiluminescence (ECL) method (Amersham Pharmacia, Buckinghamshire, United Kingdom).

[3] = tested on: K562; assay: Differentiation (CD11b expression) in K562 cells; format: cell-based
Procedure: (§1) The myeloid leukemic cell lines HL60, NB60, NB4, U937, K562 and KG1a were all grown in RPMI 1640 medium (Life Technologies, Paisley, United Kingdom) supplemented with 10% v/v fetal calf serum (Sear Laboratories International Crawley, United Kingdom), 100 U/mL penicillin, and 100 μg/mL streptomycin (Sigma Aldrich, Poole, United Kingdom) at 37° C. and 5% v/v CO2. AML blasts were isolated from patient bone marrow aspirates and peripheral blood of eight patients at diagnosis or relapse. Patients were not receiving AML therapy at time of sampling. […] Blast purity ranged from 80% to 95%, as assessed by expression of CD34. […]
(§2) Cell differentiation was determined by staining of cells with anti-CD11b antibody as a general early marker of myeloid differentiation. In studies with HL60 cells, PEP005-treated and 20 nM phorbol myristate (PMA)-treated (Sigma Aldrich) cells were also assessed for their ability to phagocytose complement-coated yeast, a marker of a fully differentiated myeloid cell, as previously described (Toksoz et al, Leukemia Res 6:491-498, 1982). […] Images were captured with a SPOT2 cameria (Diagnostic Instructions, Sterling Heights, Mich.) and analyzed using Image-Pro 4.0 software (Media Cybernetics, Silver Spring, Md.).

[4] = tested on: caspase-3; assay: Caspase-3 phosphorylation in 32PO4-labeled HL60 cells; format: cell-based; conditions: 20 nM PEP005
Procedure: To determine if PEP005 induced caspase-3 phosphorylation, HL60 cells were incubated with 1.5×10^7 Bq/mL ^32PO4 (Amersham Pharmacia) in phosphate-free medium for 3 hours prior to addition of 20 nM PEP005 or PEP005 and 5 μM rottlerin (Calbiochem, Nottingham, United Kingdom). Cells were then lysed and caspase-3 was immunoprecipitated with an anti-caspase-3 antibody (BD Pharmingen, Oxford, United Kingdom) or an irrelevant isotype-matched control antibody (DAKO) and the immunoprecipitate was isolated using an anti-mouse immunoglobulin G (IgG) antibody (DAKO) and protein G-coated magnetic beads (microbeads; Miltenyi Biotech). The isolate was taken up in SDS sample buffer and run on a 10% w/v SDS-polyacrylamide gel electrophoresis (PAGE) gel and the labeled proteins were visualized using a phosphorimager.

[5] = tested on: Normal CD34+ myeloblasts; assay: Differentiation of normal CD34+ myeloblasts (loss of CD34, morphology); format: cell-based, human; conditions: doses of 20 nM to 2.0 μM PEP005
Procedure: as §1, §2

[6] = tested on: KG1a; assay: Differentiation (CD11b expression) in KG1a cells; format: cell-based
Procedure: (§3) The myeloid leukemic cell lines HL60, NB60, NB4, U937, K562 and KG1a were all grown in RPMI 1640 medium (Life Technologies, Paisley, United Kingdom) supplemented with 10% v/v fetal calf serum (Sear Laboratories International Crawley, United Kingdom), 100 U/mL penicillin, and 100 μg/mL streptomycin (Sigma Aldrich, Poole, United Kingdom) at 37° C. and 5% v/v CO2. AML blasts were isolated from patient bone marrow aspirates and peripheral blood of eight patients at diagnosis or relapse. Patients were not receiving AML therapy at time of sampling. Blasts were isolated by Ficoll density centrifugation and were cultured in serum-free insulin transferrin selenium-positive (ITS+) medium (Life Technologies) containing 300 ng/mL stem cell factor (SCF) and 10 ng/mL interleukin 3 (IL3; R and D Systems, Abingdon, United Kingdom) and antibiotics. Blast purity ranged from 80% to 95%, as assessed by expression of CD34. Normal myeloblasts were isolated from cord blood or adult mobilized peripheral blood. Briefly, CD34^+ cells were indirectly selected from the mononuclear cell preparations using antibody-coated magnetic beads (Miltenyi Biotec, United Kingdom).
as §2, with “1982). The ingestion of three or more yeasts was taken as a positive result. In normal cord blood or adult bone marrow myeloblasts, loss of CD34 was taken as a marker of differentiation. Isotype-matched controls were used and all antibodies were from DAKO (Cambridge, United Kingdom).” for “1982).”

[7] = tested on: HL60; assay: Differentiation (CD11b expression) in HL60 cells; format: cell-based
Procedure: as §1, §2

[8] = tested on: primary AML blasts; assay: Apoptosis in primary AML blasts from patient bone marrow; format: cell-based, human
Procedure: as §3
To determine the effects of ingenol-3-angelate (PEP005), cells were incubated for up to 5 days with medium alone or PEP005 at a range of concentrations from 0.2 nM to 20 μM. […] Apoptosis and differentiation were assessed after 1 to 5 days.
as §2

T1 sequence (Q05655 whole entry, the tested form may be a part): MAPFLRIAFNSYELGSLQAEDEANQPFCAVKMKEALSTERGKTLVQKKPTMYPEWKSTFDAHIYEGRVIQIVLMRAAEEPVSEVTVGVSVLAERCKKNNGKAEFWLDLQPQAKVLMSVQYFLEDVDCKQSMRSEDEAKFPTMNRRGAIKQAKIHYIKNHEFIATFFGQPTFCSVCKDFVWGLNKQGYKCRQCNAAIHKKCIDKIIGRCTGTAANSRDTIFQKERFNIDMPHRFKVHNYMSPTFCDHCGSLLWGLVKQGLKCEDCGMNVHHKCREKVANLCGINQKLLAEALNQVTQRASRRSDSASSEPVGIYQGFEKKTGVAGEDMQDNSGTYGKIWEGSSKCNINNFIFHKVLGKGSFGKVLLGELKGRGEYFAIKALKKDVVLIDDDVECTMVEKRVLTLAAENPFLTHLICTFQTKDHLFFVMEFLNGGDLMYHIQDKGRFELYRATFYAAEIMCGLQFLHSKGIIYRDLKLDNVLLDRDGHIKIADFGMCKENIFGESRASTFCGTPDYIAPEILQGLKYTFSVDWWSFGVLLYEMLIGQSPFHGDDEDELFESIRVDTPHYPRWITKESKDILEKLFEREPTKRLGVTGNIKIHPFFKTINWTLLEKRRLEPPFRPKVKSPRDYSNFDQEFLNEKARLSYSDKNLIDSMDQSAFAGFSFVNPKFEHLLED

For `C/C=C(/C)C(=O)O[C@H]1C(C)=C[C@]23C(=O)[C@@H](C=C(CO)[C@@H](O)[C@]12O)[C@H]1[C@@H](C[C@H]3C)C1(C)C` [PEP005, ingenol-3-angelate], the “activation of protein kinase C” value [1] is given as “potent activator”, the “production of the 40-kDa fragment of PKC-δ” value [2] is given as “produced rapidly” and the CD11b expression [3] is given as “did not increase expression of CD11b”. For the same molecule, the “induction of caspase-3 phosphorylation” value [4] was “able to induce caspase-3 phosphorylation”, the “differentiation (loss of CD34, promyelocyte- and myelocyte-like morphologies)” value [5] was “induced to differentiate” and the differentiation response ([6]; agent alone) was “did not respond”. For the same molecule, the CD11b expression ([6]; even at 20 μM PEP005) was “did not enter apoptosis or show CD11b expression”, the “synergy with ATRA in CD11b differentiation response” value ([7]; 10 nM ATRA and 20 nM PEP005 in combination, 5 days) was “able to synergize with ATRA” and the “PEP005 concentration with optimal effect, CD11b expression” value ([7]; treated 5 days) was 20 nM. For the same molecule, the “viable blast cells / morphology” value ([8]; after 48 hours of treatment with 20 nM PEP005) was “few viable AML blast cells remained”, the “patient AML blast samples induced to enter apoptosis” value ([8]; blasts of eight AML patients) was “seven of these were induced to enter apoptosis” and the “lowest PEP005 concentration inducing apoptosis” value ([8]; seven responsive AML samples) was 2 nM.
